Data: PMC8218635, “Structural Insights into the Mechanisms of Action of Functionally Distinct Classes of Chikungunya Virus Nonstructural Protein 1 Inhibitors” (Antimicrobial Agents and Chemotherapy, 2021)
Like-named read-outs stand apart in the source and are kept apart here.

How the values were obtained:
[1] = tested on: Vero E6 cells
[2] = tested on: CHIKV; experiment: microbe, parasite or virus in culture; assay type: cell-based
[3] = tested on: rCHIKV G230R + K299E; assay type: cell-based, Chikungunya virus; conditions: for Fold resistance, rCHIKV G230R + K299E: (EC50 for the variant)/(EC50 for the wt); for EC50: CPE reduction assay, Vero E6 cells; for Sensitivity or resistance of CHIKV nsP1-G230R+K299E to the compound: Fig. 2
[4] = tested on: rCHIKV P34S; assay type: cell-based, Chikungunya virus; conditions: for Fold resistance, rCHIKV P34S: (EC50 for the variant)/(EC50 for the wt); for EC50: CPE reduction assay, Vero E6 cells; for Sensitivity or resistance of CHIKV nsP1-P34S to the compound: at the concentrations tested, Fig. 2
[5] = tested on: rCHIKV S454G + W456R; assay type: cell-based, Chikungunya virus; conditions: for Fold resistance, rCHIKV S454G + W456R: (EC50 for the variant)/(EC50 for the wt); for EC50: CPE reduction assay, Vero E6 cells; for Sensitivity or resistance of CHIKV nsP1-S454G+W456R to the compound: at the doses tested, Fig. 2
[6] = tested on: SFV; experiment: microbe, parasite or virus in culture; assay type: cell-based; conditions: multicycle CPE reduction assay, Vero E6 cells, NA = not active
[7] = tested on: SINV; set-up: method as in PMID 31964798; conditions: cited from earlier work
[8] = target: T1, wt SFV nsP1 (Semliki forest virus, UniProt P08411); set-up: method as in PMID 31964798; conditions: cited from earlier work
T1 sequence (P08411 1-537 limits assumed): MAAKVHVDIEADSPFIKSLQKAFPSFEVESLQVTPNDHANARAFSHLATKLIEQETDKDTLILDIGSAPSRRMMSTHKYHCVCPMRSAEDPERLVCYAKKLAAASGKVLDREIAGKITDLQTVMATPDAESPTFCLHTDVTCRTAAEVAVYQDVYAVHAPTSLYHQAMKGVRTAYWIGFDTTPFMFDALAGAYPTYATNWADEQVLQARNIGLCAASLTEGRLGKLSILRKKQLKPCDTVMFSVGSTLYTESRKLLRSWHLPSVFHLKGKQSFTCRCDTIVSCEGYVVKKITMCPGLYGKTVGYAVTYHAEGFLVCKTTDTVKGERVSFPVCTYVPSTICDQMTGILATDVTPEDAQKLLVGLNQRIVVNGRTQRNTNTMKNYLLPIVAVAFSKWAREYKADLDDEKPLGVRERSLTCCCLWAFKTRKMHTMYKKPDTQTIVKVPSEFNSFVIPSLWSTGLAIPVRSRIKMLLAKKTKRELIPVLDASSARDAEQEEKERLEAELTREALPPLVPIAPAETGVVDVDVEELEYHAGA

[9] = target: T1, wt SFV nsP1; assay type: biochemical; conditions: for Inhibition of formation of the covalent [32P]m7GMP-nsP1 complex: wt SFV nsP1, 100 μM SAM, inhibitor 50 μM to 1 mM, Fig. 3A
[10] = target: wt CHIKV nsP1 (Chikungunya virus, UniProt Q8JUX6); assay type: biochemical; conditions: wt CHIKV nsP1, 10 μM SAM; for Inhibition of formation of the covalent [32P]m7GMP-nsP1 intermediate: inhibitor 0.5 to 32 μM, Fig. 3C
[11] = in vitro; conditions: African green monkey
[12] = tested on: VEEV nsP1; conditions: cited from earlier work
[13] = tested on: CHIKV nsP1; conditions: enzymatic assays measuring either MTase or GTase activity; cited from earlier work
[14] = Chikungunya virus, Vero C1008, 96 h, read-out: EC50, concentration that reduces virus-induced CPE by 50%, CHIKV, multicycle CPE reduction assay, Vero E6 cells, 96 h
[15] = Chikungunya virus, Vero C1008, read-out: EC50 for wt CHIKV, Table 2, wt CHIKV, CPE reduction assay, Vero E6 cells

| Compound | Fold resistance, rCHIKV G230R + K299E [3] | EC50 [3] | Sensitivity or resistance of CHIKV nsP1-G230R+K299E to the compound [3] | Fold resistance, rCHIKV P34S [4] | EC50 [4] | Fold resistance, rCHIKV S454G + W456R [5] | CC50 ([1]; African green monkey) | EC50 [2, 14] | EC50 [2, 15] | Inhibition of formation of the covalent [32P]m7GMP-nsP1 complex [9] | EC50 [5] | Sensitivity or resistance of CHIKV nsP1-S454G+W456R to the compound [5] | Inhibition of formation of the covalent [32P]m7GMP-nsP1 intermediate [10] | CC50 [11] | Sensitivity or resistance of CHIKV nsP1-P34S to the compound [4] | other results |
| --- | --- | --- | --- | --- | --- | --- | --- | --- | --- | --- | --- | --- | --- | --- | --- | --- |
| 6′-β-Fluoro-homoaristeromycin [FHA] | 14.3 | > 10 µM | resistant | 2.3 | 1.6 ± 0.2 µM | 1 | – | – | – | – | – | – | – | – | – | CC50 [1]: > 250 µM; EC50 ([2]; CHIKV, multicycle CPE reduction assay, Vero E6 cells, 96 h, read-out: EC50, concentration that reduces virus-induced CPE by 50%): 0.7 ± 0.08 µM; EC50 ([2]; Table 2, wt CHIKV, CPE reduction assay, Vero E6 cells, read-out: EC50 for wt CHIKV): 0.7 ± 0.08 µM; EC50 ([6]; 32 h): 3.9 ± 3.5 µM; Activity against SINV [7]: inactive |
| Nc1ncnc2c1ncn2C1C(F)=C(CCO)C(=O)C1O (stereo not drawn) [3′-Keto form of FHNA] | – | – | – | – | – | – | – | – | – | – | – | – | – | – | – | Inhibition of formation of the covalent [32P]m7GMP-nsP1 intermediate ([8]; wt SFV nsP1): only partially inhibited |
| CCNc1nc(C)cc(N2CCN(C(=O)c3ccc(F)cc3)CC2)n1 [CHVB-032] | 1 | 3.4 ± 0.2 µM | – | 14.4 | 52.4 ± 0.8 µM | 29.4 | > 100 µM | 3.4 ± 0.3 µM | 3.4 ± 0.3 µM | completely blocked | > 100 µM | completely resistant | in a dose-dependent manner | > 100 µM | – | – |
| CCNc1nc(C)cc(N2CCN(C(=O)c3ccc(C)cc3)CC2)n1 [CHVB-066] | <1 | 0.3 ± 0.04 µM | – | 20.8 | > 12.5 µM | 20.8 | – | < 1 µM | 0.6 ± 0.1 µM | completely blocked | > 12.5 µM | – | in a dose-dependent manner | 25 µM | completely resistant | Inhibition of GTase activity of VEEV nsP1 [12]: inhibit the GTase activity |
| Nc1ncnc2c1ncn2C1C(F)=C(CCO)C(O)C1O (stereo not drawn) [FHNA, 6′-fluoro-homoneplanocin A] | 8.6 | > 10 µM | resistant | 2.4 | 2.8 ± 0.3 µM | 1 | > 250 µM | 1.2 ± 0.03 µM | 1.2 ± 0.03 µM | – | 1.2 ± 0.1 µM | – | – | > 250 µM | – | Inhibition of formation of the covalent [32P]m7GMP-nsP1 intermediate ([8]; modified SFV nsP1 assay lacking DTT, not shown): to a lesser extent; EC50 ([6]; Semliki Forest virus, Vero C1008, 32 h): 3.9 to 5.2 µM; EC50 ([6]; 32 h): 5.2 ± 3.2 µM; Activity against SINV [7]: inactive; Reduction of the [32P]m7GMP-nsP1 signal ([10]; with or without DTT, 12.5 to 500 μM compound, Fig. 3E): no reduction in the signal |
| CNc1ncnc2c1ncn2C1C(O)C(O)C(CCO)C1F (stereo not drawn) [FMA, 6′-β-fluoro-N^6-methyladenosine] | – | – | – | – | – | – | – | – | – | – | – | – | – | – | – | Activity in CHIKV CPE reduction assays ([2]; source of the data not stated): inactive |
| NC(=O)c1nc(F)c[nH]c1=O [Favipiravir, reference compound] | 1.7 | 135 ± 5 µM | sensitive | 1.2 | 95.9 ± 12.8 µM | 1.1 | – | – | 79.8 ± 1.4 µM | – | 89.5 ± 0.2 µM | sensitive | – | – | sensitive | – |
| CCC1=NC2C(N=NN2c2cccc(OC(C)C)c2)C(=O)N1 (stereo not drawn) [MADTP-372] | <1 | 1.2 ± 0.2 µM | – | 9.3 | > 25 µM | 9.3 | > 100 µM | 2.7 ± 0.2 µM | 2.7 ± 0.2 µM | less effectively | > 25 µM | cross-resistant | in a dose-dependent manner | > 100 µM | completely resistant | Inhibition of GTase activity of VEEV nsP1 [12]: inhibit the GTase activity |
| Nc1ncnc2c1ncn2[C@@H]1O[C@H](C[C@@H](N)CC[C@H](N)C(=O)O)[C@@H](O)[C@H]1O [Sinefungin, reference compound] | 1.5 | 274.5 ± 0.2 µM | sensitive | <1 | 151 ± 2.5 µM | <1 | > 1000 µM | 185 ± 38.4 µM | 185 ± 38.4 µM | very inefficient inhibitor | 110 ± 3.9 µM | sensitive | – | > 1000 µM | sensitive | Effect on GTase activity in reactions lacking SAM ([9]; wt SFV nsP1, 50 μM sinefungin, no SAM, Fig. 3B): appeared to stimulate GTase activity; Inhibition of CHIKV nsP1 [13]: inhibits; Reduction of the [32P]m7GMP-nsP1 signal ([10]; 1 mM compound, Fig. 3D): reduced the signal slightly; Reduction of the [32P]m7GMP-nsP1 signal ([10]; 125 to 500 μM compound, Fig. 3D): did not lead to any reduction in the signal; Inhibition of VEEV nsP1 [12]: inhibits |
